Values quoted from earlier work, collected in US20050171131A1, “Diaminopyrimidine derivatives as growth hormone secrectgogue receptor (GHS-R) antagonists” (priority 2003, published 2005).
Non-standard residues stand in square brackets, D forms with d. No end group written: not given here.

[1] = repeated administration, ob/ob mice

Substance: H-H[dW][dK]W[dF]K [[D-Lys-3]-GHRP]
- energy intake (lean mice, mice with diet induced obesity, ob/ob obese mice): decrease energy intake
- rate of gastric emptying (mice): reduced the rate of gastric emptying
- body weight [1]: decreased body weight
- glycemic control [1]: improved glycemic control
